Molecules are shown by their SMILES. Entries after “also recorded” stand apart in the source; their conditions may differ.

What all share (assay type): cell-based, human
Assay [1] concerns MDA-MB-468 breast cancer cells. The assay is described as follows: Cell viability / cell killing, photomicrographs of treated cells. How it is done: (§1) FIG. 2. depicts 2A) Photomicrographs of MDA-MB-468 or BxPC3 cells treated for 24 hours with 25 μM NSC624205 or the vehicle control. 2B) MDA-MB-468 cells were treated for 24 hours with the indicated concentrations of NSC624203, NSC624204, and NSC624205 and cell viability (mass) was measured by crystal violet staining. 2C) Photomicrographs of MDA-MB-468, SKBR3, or MDA-MB-231 cells treated for 24 h with 10 μM NSC624205 or the vehicle control. 2D) Cell proliferation was measured by thymidine incorporation through the treatment of MDAMB-468 and SKBR3 cells for 24 hours with NSC624203, an EGFR/HER2 inhibitor, or a combination of the two compounds. Results are presented as the average of triplicate determinations±S.D. 2E) The indicated cancer cell lines were treated for 24 h with 20 μM NSC624205 or vehicle and cell extracts were analyzed by immunoblot. Actin serves as a loading control.
FIG. 5. depicts 5A) Photomicrographs of MDA-MB-468 cells treated for 24 h with 20 μM of the indicated compounds. 5B) Immunoblot analysis of MDA-MB-468 cells treated as in 5A. 5C) Chemical structures of Disulfide bond Disrupting Agents (DDAs) showing active compounds on the left side with the pharmacophore highlighted in red, along with the generic pharmacophore. […] The exception to this rule is NSC627175/DTDO, which represents a different pharmacophore. 5D) Viability of BT474 or MDA-MB-468 cells treated for 24 h with the indicated drug at the specified concentrations was measured in MTT assays. Assays were carried out in triplicate and results were presented as the average±S.D. 5E) Proliferation of tert-immortalized human mammary epithelial cells (HMEC-tert) and MDA-MB-468, BT474, and SKBR3 breast cancer cells after incubation with the indicated concentrations of RBF3 for 24 h was measured in thymidine incorporation assays as described in FIG. 2D. 5F)-5H) The indicated cell lines were treated with the indicated compounds at 20 μM unless otherwise indicated for 24 h and analyzed by immunoblot.
The sulfur atom in sulfinic acids can act as a nucleophile capable of breaking disulfide bonds. […]

Assay [2] concerns BxPC3 pancreatic cancer cells. The assay is described as follows: Cell viability, photomicrographs of treated cells. Conditions: 25 μM, 24 hours. The protocol: as §1
(§2) The sulfur atom in sulfinic acids can act as a nucleophile capable of breaking disulfide bonds. Therefore we obtained several sulfinate-containing compounds from the National Cancer Institute's Developmental Therapeutics Program (NCI/DTP) and, as an initial screen, examined their ability to decrease the viability of various human cancer cell lines. […] NSC624205 and two related compounds, NSC624203 and NSC624204, decreased cell viability by 50% in the range of 3.7-33 μM (FIG. 2B). […]

Assay [3] concerns MDA-MB-231 breast cancer cell line. The assay is described as follows: Cell killing, photomicrographs of treated cells. Conditions: 10 μM, 24 hr. The protocol: as §1, §2
Assay [4] relates to SKBR3 cells. The assay can be described thus: Cell killing, photomicrographs of treated cells. Conditions: 10 μM, 24 hr. How it is done:
as §1, §2

Assay [5] concerns T47D cells (vector control). The assay is described as follows: Cell death, photographs of treated cells. How it is done:
(§3) FIG. 4. depicts 4A) the treatment of vector control or EGFR overexpressing T47D cells with 20 μM NSC624205 or vehicle for 24 hours and then photographed. […] 4B) Cells treated as in 4A) were subjected to immunoblot analysis.

Assay [6] relates to T47D cells with enforced EGFR expression (T47D.EGFR). The assay is described as follows: Cell death, photographs of treated cells. Conditions: 20 μM, 24 hours. How it is done:
as §3

For assay [7], the system named is EGFR, HER2, HER3, Akt, Erk, PARP in MDA-MB-468 cells. The assay is described as follows: Immunoblot analysis of treated cells. How it is done: FIG. 3. depicts 3A) the analysis of MDA-MB-468 cells treated as indicated for 24 h by immunoblot for levels of EGFR and EGFR phosphorylation. 3B) the analysis of MDA-MB-468 cells treated as indicated for 24 h by immunoblot for PARP cleavage. 3C) MDA-MB-468 cells were either left untreated, or treated with 20 μM NSC624205 for 24 hours. NSC624205-treated cells were then washed and incubated for the indicated periods in the absence of drug. EGFR electrophoretic mobility was analyzed by immunoblot. 3D) MDA-MB-468 cells were pretreated with 25 μM NSC624205 or vehicle for 15 hours and then either left untreated or stimulated for 15 minutes with 20 ng/ml EGF, after which cell extracts were analyzed by immunoblot. 3E) MDA-MB-468 cells were treated as indicated for 24 hours and analyzed by immunoblot.
FIG. 5. depicts 5A) Photomicrographs of MDA-MB-468 cells treated for 24 h with 20 μM of the indicated compounds. 5B) Immunoblot analysis of MDA-MB-468 cells treated as in 5A. […] 5D) Viability of BT474 or MDA-MB-468 cells treated for 24 h with the indicated drug at the specified concentrations was measured in MTT assays. Assays were carried out in triplicate and results were presented as the average±S.D. 5E) Proliferation of tert-immortalized human mammary epithelial cells (HMEC-tert) and MDA-MB-468, BT474, and SKBR3 breast cancer cells after incubation with the indicated concentrations of RBF3 for 24 h was measured in thymidine incorporation assays as described in FIG. 2D. 5F)-5H) The indicated cell lines were treated with the indicated compounds at 20 μM unless otherwise indicated for 24 h and analyzed by immunoblot.
To examine the reversibility of NSC624205 actions, MDA-MB-468 cells were treated for 24 hr with NSC624205 and then the compound was washed out and the cells were allowed to recover for various periods of time. […] To examine whether NSC624205 can suppress cellular responses to EGF, cells were stimulated with EGF either with or without NSC624205 treatment.
Background: Immunoblotting shows a protein as a band on a membrane.

In assay [8] the test system is EGFR, HER2, HER3, Akt, Erk in SKBR3 cells. The assay can be described thus: Immunoblot analysis of treated cells. Conditions: 20 μM, 24 h. How it is done: as §1
FIG. 5. depicts 5A) Photomicrographs of MDA-MB-468 cells treated for 24 h with 20 μM of the indicated compounds. 5B) Immunoblot analysis of MDA-MB-468 cells treated as in 5A. […] 5D) Viability of BT474 or MDA-MB-468 cells treated for 24 h with the indicated drug at the specified concentrations was measured in MTT assays. […] 5F)-5H) The indicated cell lines were treated with the indicated compounds at 20 μM unless otherwise indicated for 24 h and analyzed by immunoblot. […]

For assay [9], the system named is HER2, EGFR, Akt, Erk, S6, PARP in HCC1954 cells. The assay can be described thus: Immunoblot analysis of treated cells.
Excerpt: Immunoblot analysis of HCC1954 cells treated as in 8B.
For another assay, the system named is Erk in T47D cells. The assay is described as follows: Immunoblot analysis of treated cells. Conditions: 20 μM, 24 h. The protocol:
as §1, §2

The test system of assay [10] is EGFR, Akt in EGFR overexpressing T47D cells. The assay can be described thus: Immunoblot analysis of treated cells. Conditions: 20 μM, 24 hours. The protocol: as §3
Another assay concerns HCC1954 cells. The assay is described as follows: Viability in MTT assay. Conditions: 24 h.
The test system of the next assay is MDA-MB-468 cells. The assay can be described thus: Cell proliferation by thymidine incorporation. Conditions: 24 hours, same concentration. The protocol:
as §1, §2

The subject of assay [11] is SKBR3 cells. The assay is described as follows: Cell proliferation by thymidine incorporation. Conditions: 24 hours, same concentration. How it is done:
as §1, §2
(In general: Dividing cells build labelled thymidine or BrdU into new DNA.)

Assay [12] deals with T47D.Puro and T47D.EGFR cells. The assay can be described thus: Thymidine incorporation, vector control versus EGFR overexpressing cells. Conditions: 24 h, increasing concentrations.
Where [13] appears, read: 25 μM pretreatment 15 hours, 20 ng/ml EGF 15 minutes.
The mark [14] stands for this setting: 24 h, increasing concentrations.

On to `O=S(O)CCCCSSCCCCSSCCCCS(=O)O` [NSC624205], for which the cell killing result in [1] (10 μM, 24 hr) is “killed”; in assay [3] it was “little effect”; in the assay with SKBR3 cells [4], “killed”; in [5], “not killed”. The cell viability entry is “lethal” in [1] (25 μM, 24 hours) and “little effect” in assay [2]. Further, the cell death result in [6] is reported as “Extensive cell death; also recorded: underwent cell death”. Besides, in assay [7] (20 μM for 24 hours, then 24 hours post-treatment without drug), the “EGFR electrophoretic mobility after washout (reversibility)” value is listed as “restored to near control levels”. For the same compound, the “EGFR tyrosine phosphorylation on Tyr845, EGF-induced” value in assay [7] (setting [13]) is “decreased”. Moreover, in assay [7] (setting [13]), the “overall EGF-induced cellular tyrosine phosphorylation” value was “decreased”. The EGFR electrophoretic mobility result in assay [7] (setting [14]) was “concentration-dependent increase”; in assay [10], “electrophoretic mobility shift”. Further, the “EGFR phosphorylation (phospho-specific antibody)” value in assay [7] (setting [14]) is “decrease”. Further, in [7] (setting [14]), the PARP cleavage entry is reported as “concentration-dependent increase”. Further, the Akt phosphorylation entry in assay [8] is listed as “inhibiting”; in assay [10], “decreased”. Also, the Erk phosphorylation entry is given as “inhibiting” in [8]; “inhibiting” in assay [9] (20 μM NSC624205, 24 h (FIG. 2E)); “inhibiting” in the assay with Erk in T47D cells.
For the compound `O=S(O)CCCCSSSCCCCS(=O)O` [NSC333839], the cell viability entry in assay [1] (20 μM, 24 h, panel of sulfinate-containing compounds) is “activity similar to NSC624205”. Moreover, the “EGFR and Akt phosphorylation” value in assay [7] (20 μM, 24 h) is “activity similar to NSC624205”.
Turning to `CS(=O)(=O)CCNCc1ccc(-c2ccc3ncnc(Nc4ccc(OCc5cccc(F)c5)c(Cl)c4)c3c2)o1` [Lapatinib], the Akt phosphorylation entry in assay [9] (24 h, 20 μM RBF3, 100 nM Rapamycin, 20 μM Lapatinib) is reported as “without affecting”. Moreover, the Erk phosphorylation result in assay [9] (24 h, 20 μM RBF3, 100 nM Rapamycin, 20 μM Lapatinib (FIG. 8C)) was “reduced”. Besides, in the assay on HCC1954 cells, the “response of cell viability to single drug” value is “slightly more responsive”.
Turning to `O=S(O)CCCCSSCC(O)C(O)CSSCCCCS(=O)O` (stereo not drawn) [NSC624203], the “inhibition of proliferation compared with commercial EGFR/HER2 tyrosine kinase inhibitor (Calbiochem #324673)” value with MDA-MB-468 cells and in the assay on SKBR3 cells [11] was “more effectively suppressed” throughout. Also, in [12], the “sensitivity of proliferation of EGFR overexpressing T47D cells relative to control cells” value is reported as “more sensitive”. Also, in assay [7] (24 hours), the “decreasing Akt phosphorylation, increasing PARP cleavage, reducing EGFR and overall cellular tyrosine phosphorylation, compared with AG490 or EGFR/HER2 kinase inhibitor” value is on record as “more effective”.
Consider `O=S(O)CCCCSSCC(O)CO` (stereo not drawn) [NSC606968], for which, in [7] (20 μM, 24 h), the Akt phosphorylation entry is “weak effect” and the EGFR electrophoretic mobility entry is “partial effect”.

The values above are taken from patent US20170240570A1, “NOVEL SMALL MOLECULE ANTICANCER AGENTS” (UNIVERSITY OF FLORIDA RESEARCH FOUNDATION, priority 2014, published 2017).
